Results as given in patent US7750114B2, “Peptides having a high cysteine content” (priority 2002, dated 2010).
Bridge positions count the residues as written; N and C are the ends. Ends that are not written are not given here.

What was measured:
[1] = tested on: murine peritoneal macrophages; experiment: Effect on murine peritoneal macrophages (NO, TNF-α, IL-10, survival); assay type: cell-based, CD1 mice; conditions: 24 hours; for IL-10 / TNF-α: control 0; for NO: control 1.1; for Survival rate: control 100
Procedure: Murine peritoneal macrophages extracted from CD1 mice were used. A peritoneal flushing was carried out using 5 ml of PBS. After three washing processes with RPMI 1640 the cells were put into a 96-well culturing plate with a concentration of 1×10^6 cells/ml (200 μl/well) in 10% FCS-RPMI 1640 medium and kept for 24 hours. After the incubation the cells were washed three times with RPMI 1640 and resuspended in 10% FCS-RPMI 1640 medium (100 μl/well) in the absence (non stimulated) or in the presence (stimulated) of different stimulants. After 24 hours of incubation NO, IL-10 and TNF-α were measured in the culture supernatant.

[2] = tested on: Colon cancer cell line: Colo 205; experiment: Living Colo 205 cells by MTT test; assay type: cell-based, homo sapiens; conditions: 24 h
Procedure: After adherence of the cells (incubation 24 h, cell amount 1×10^4 cells per batch), the cells were treated for 24 h with MCS and/or peptides (Hellethionin C (CZT), Hellethionin D (DZT)) and afterwards the percentage of living cells was measured by MTT test.
The MTT cell growth test was carried out according to Alley et. al. (M. C. Alley et al., Proc. Am. Assoc. Cancer Res., 27:389, 1986; M. C. Alley et al., Cancer Res. 48:589-601, 1988). The finale concentration of 3-(4,5-dimethylthiazol-2-yl)-2,5-diphenyltetrazoliumbromide was 0.4 mg/ml.

[3] = tested on: lung carcinoma cell line: A549; experiment: Living A549 cells by AlamarBlue test; assay type: cell-based, homo sapiens; conditions: 100 μg/ml, after 72 h, FIG. 4
Procedure: Cell line: lung carcinoma cell line: A549 (ATCC No. CCL-185™), organism: homo sapiens, literature: Giard D J, et al. J. Natl. Cancer Inst. 51: 1417-1423, 1973.
After adherence of the cells (incubation 24 h, cell amount 5×10^3 cells per batch), the cells were treated for 72 h with MCS and/or peptides (CZT, DZT) and afterwards the percentage of living cells was measured by AlamarBlue test.
AlamarBlue™ cell growth test was carried out according to the specifications of the manufacturer (Serotec, Oxford, England, www.serotc.com).

[4] = tested on: primary human immune cells; experiment: Effect on the cytokine production of primary human immune cells (Quantikine ELISA in lymphocyte cultures); assay type: cell-based; conditions: for TGF-β2 concentration: control 9; for IL-4 concentration: control 34; for IL-3 concentration: control 41; for IL-2R concentration: control 44; for IL-10 concentration: control 69; for IL-6R concentration: control 171
Procedure: The effect of the peptide HT-A on the cytokine production of primary human immune cells was determined through the measurement of the concentration of cytokines in lymphocyte cultures obtained from human blood. Dosages of 4-200 μg/ml of the hellethionins were used, which were obtained by adding the calculated amounts in the form of a stock solution. The concentration of individual cytokines in the treated and control samples is determined by means of the commercially available “Quantikine” ELISA plates from R&D Biosystems, Minneapolis, USA. The results were compared with control samples, i.e. with the lymphocyte culture without addition of the peptide.
In the case of the lymphocyte cultures (4 million cells per ml) treated with 4 μg and 200 μg of the peptide HT-A, respectively, the following cytokine (and cytokine receptor) concentrations [pg/ml] were obtained in comparison with the control sample (without peptide): […]

human lymphocytes = conditions: Büssing A. et al. 1999; cited from earlier work
[5] = mammals; cited from earlier work

For “KSCCRNTLARNCYNACRFTGGSQPTCGILCDCIHVTTTTCPSSHPS (disulfide 3-40, 4-32, 12-30, 16-26) [HT-D, hellethionin-D]”, the IL-10 ([1]; 5 μg/ml) was 0 pg/mL, the TNF-α ([1]; 5 μg/ml) was 18 pg/mL and the NO ([1]; 5 μg/ml) was 0.8 µM. The Survival rate ([1]; 5 μg/ml) was 87.6%, the IL-10 ([1]; 100 μg/ml) was 0 pg/mL and the TNF-α ([1]; 100 μg/ml) was 0 pg/mL. The NO ([1]; 100 μg/ml) was 1.3 µM, the Survival rate ([1]; 100 μg/ml) was 42.8% and the “Living Colo 205 cells” value ([2]; 50 μg/ml) was 92.15%. For the same substance, the “Living Colo 205 cells” value ([2]; 100 μg/ml, listed as DZT) was “about 50%”, the “Living Colo 205 cells” value ([2]; 100 μg/ml, listed as DZT peptide) was 58.66% and the “living cells (A549)” value [3] was “about 50%”.
Work on “KSCCRNTLGRNCYNACRLTGTSQATCATLCDCIHVTATTCRPPYPS (disulfide 3-40, 4-32, 12-30, 16-26) [HT-C, hellethionin-C]” yielded a Survival rate ([1]; 5 μg/ml) of 80.3% and a Survival rate ([1]; 100 μg/ml) of 10.7%.
In the case of hellethionin-A [HT-A], the TGF-β2 concentration ([4]; 4 μg/ml peptide) is reported as 105 pg/mL, the IL-4 concentration ([4]; 4 μg/ml peptide) is reported as 19 pg/mL and the IL-3 concentration ([4]; 4 μg/ml peptide) is reported as 26 pg/mL. It also gave an IL-2R concentration ([4]; 4 μg/ml peptide) of 30 pg/mL, an IL-10 concentration ([4]; 4 μg/ml peptide) of 288 pg/mL and an IL-6R concentration ([4]; 4 μg/ml peptide) of 100 pg/mL. The TGF-β2 concentration ([4]; 200 μg/ml peptide) was 45 pg/mL, the IL-4 concentration ([4]; 200 μg/ml peptide) was 12 pg/mL and the IL-3 concentration ([4]; 200 μg/ml peptide) was 8 pg/mL. The IL-2R concentration ([4]; 200 μg/ml peptide) was 67 pg/mL, the IL-10 concentration ([4]; 200 μg/ml peptide) was 12 pg/mL and the IL-6R concentration ([4]; 200 μg/ml peptide) was 65 pg/mL. The “expression of pro-inflammatory cytokines IL-2, IL-3, IL-4 and γ-IFN” value ([4]; 4 and 200 μg/ml) was “inhibiting the expression”, the “influence on production of IL-6 or TNF-α and expression of the IL-1 receptor” value ([4]; 4 and 200 μg/ml) was “no significant influence” and the “effect on cytokines acting suppressively, IL-10 and TGF-β2” value ([4]; more intense at 4 μg/ml than at 200 μg/ml) was “shows a stimulation”.
For purothionins, the “toxic effect on human lymphocytes” value (human lymphocytes) is given as “do not exert a toxic effect”.
In the case of viscotoxins, the LD50 [5] is listed as 0.1 to 1 mg/kg and the “toxic effect on human lymphocytes” value (human lymphocytes) is listed as “toxic”.
